Measurements taken from article PMC2765055 (Bioorganic & medicinal chemistry, 2009).
“Also recorded” adds a separate entry of the source. Where two headings read alike, the source gives them in different places.

Assays:
[1] = system: EBV; assay: EBV DNA hybridization assay in Akata cells; format: cell-based, Epstein-Barr virus
[2] = Cytotoxicity, EBV/Akata column; format: cell-based; conditions: human, Akata cells
[3] = system: HSV-2; conditions: read-out: EC50 HSV-2/HFF; CPE assay; cited from earlier work
[4] = system: HCMV AD169 strain; conditions: read-out: EC50 HCMV/HFF AD169, plaque reduction; cited from earlier work
[5] = system: KB cells; conditions: read-out: CC50 HSV-1/BSC-1; replicating KB cells; cited from earlier work
[6] = system: HFF cells; conditions: read-out: CC50 HCMV/HFF Towne; visual cytotoxicity of HFF; cited from earlier work
[7] = system: HFF cells; conditions: neutral red uptake, cited from earlier work
[8] = system: VZV; conditions: cited from earlier work; for EC50: read-out: EC50 VZV/HFF, CPE assay
[9] = system: EBV; conditions: read-out: EC50 EBV/Akata; DNA hybridization assay; cited from earlier work
[10] = system: HSV-1; conditions: read-out: EC50 HSV-1/BSC-1; ELISA in BSC-1 cells; cited from earlier work
[11] = system: MEF; conditions: read-out: CC50 MCMV/MEF; cited from earlier work
[12] = system: HSV-1; conditions: read-out: EC50 HSV-1/HFF; CPE assay; cited from earlier work
[13] = system: EBV; conditions: read-out: EC50 EBV; Daudi cells, viral capsid antigen (VCA) assay; cited from earlier work
[14] = system: HSV-1; conditions: read-out: EC50 HSV-1/BSC-1; plaque reduction in BSC-1 cells; cited from earlier work
[15] = system: hepatitis B virus (HBV); conditions: cited from earlier work
[16] = Cytotoxicity by neutral red uptake; format: cell-based; conditions: human, HFF cells
[17] = system: HFF cells; assay: Cytotoxicity by neutral red uptake; format: cell-based; conditions: read-out: CC50 HSV-1/HFF; neutral red uptake, HSV-1/HFF column
[18] = system: HCMV Towne strains with mutations in UL97; assay: HCMV Towne strains with UL97 mutations; format: cell-based, human cytomegalovirus; conditions: strains E8 and 2696r
[19] = Cytotoxicity in replicating KB cells; format: cell-based; conditions: human
[20] = system: HCMV, MCMV, HSV-1, HSV-2, VZV, EBV, HBV, HCV; assay: Antiviral panel, all tested viruses; format: cell-based
[21] = Visual cytotoxicity of HFF's in cells unaffected by virus; format: cell-based; conditions: human, HFF cells (not affected by virus)
[22] = system: hepatitis C virus (HCV); assay: HCV antiviral test; format: cell-based
[23] = system: VZV; assay: VZV CPE assay in HFF; format: cell-based, varicella zoster virus
[24] = system: hepatitis B virus (HBV); assay: HBV antiviral test; format: cell-based
[25] = system: HSV-1; assay: HSV-1 CPE inhibition assay in HFF; format: cell-based, herpes simplex virus type 1; conditions: Human alphaherpesvirus 1, read-out: EC50 HSV-1/HFF
[26] = system: HSV-2; assay: HSV-2 CPE inhibition assay in HFF; format: cell-based, herpes simplex virus type 2; conditions: Human alphaherpesvirus 2, read-out: EC50 HSV-2/HFF
[27] = Cytotoxicity, MCMV/MEF column; format: cell-based; conditions: mouse, MEF cells
[28] = read-out: CC50 HCMV/HFF AD169, AD169 column
[29] = read-out: CC50 HSV-1/HFF, HSV-1/HFF column

Compound: Nc1nc2c(ncn2COCCO)c(=O)[nH]1 [Acyclovir, acyclovir]
- EC50 ([1]; human gammaherpesvirus 4, Akata, read-out: EC50 EBV/Akata): 8.4 µM
- CC50 [2]: > 100 µM

Compound: Nc1nc2c(ncn2/C=C2/CC2(CO)CO)c(=O)[nH]1 [Compound 2b, cyclopropavir]
- EC50 [3]: > 380 µM
- EC50 [4]: 0.49 µM
- CC50 [5]: > 100 µM
- CC50 [6]: > 100 µM
- CC50 [7, 28]: > 380 µM
- CC50 [7, 29]: > 380 µM
- activity against VZV ([8]; HFF): ineffective
- EC50 [8]: > 380 µM
- EC50 [9]: 0.22 µM
- EC50 [10]: > 100 µM
- CC50 [11]: > 380 µM
- EC50 [12]: > 380 µM

Compound: Nc1nc(O)c2ncn(/C=C3/CC34COP(=O)(O)OC4)c2n1 (stereo not shown) [Compound 10]
- EC50 [13]: 0.96 µM
- EC50 [14]: 20 µM
- EC50 [4]: 6 µM
- activity against HBV [15]: effective
- CC50 [5]: > 100 µM
- CC50 [6]: > 100 µM
- CC50 [7, 28]: > 301 µM
- CC50 [7, 29]: > 301 µM
- EC50 [8]: > 301 µM
- CC50 [11]: > 301 µM
- EC50 [12]: > 301 µM

Compound: Nc1nc2c(ncn2/C=C2/CC2(CO)CCP(=O)(O)O)c(=O)[nH]1 (stereo not drawn) [Compound 12, (Z)-9-{[2-(Hydroxymethy)l-2-(2-phosphonoethyl)cyclopropylidene]methyl}guanine]
- CC50 [16]: > 300 µM
- CC50 [17]: > 300 µM
- activity against UL97 mutant strains compared with wild-type Towne HCMV [18]: as active

Compound: Nc1nc2c(ncn2/C=C2\CC2(CO)CCP(=O)(O)O)c(=O)[nH]1 (stereo not drawn) [Compound 13, (E)-9-{[2-(Hydroxymethy)l-2-(2-phosphonoethyl)cyclopropylidene]methyl}guanine]
- CC50 [19]: > 100 µM
- antiviral activity against all tested viruses [20]: devoid of potency; also recorded: devoid of antiviral activity
- CC50 [21]: > 100 µM
- CC50 [2]: > 100 µM

Compound: Nc1nc2c(ncn2/C=C2/CC23CCP(=O)(O)OC3)c(=O)[nH]1 (stereo not shown) [Compound 14]
- activity against HCV [22]: inactive
- activity against EBV ([1]; Akata cells): inactive; also recorded: ineffective
- activity against VZV ([23]; HFF): ineffective
- activity against UL97 mutant strains compared with wild-type Towne HCMV [18]: as active
- activity against HBV [24]: inactive

Compound: Nc1nc2c(ncn2/C=C2\CC23CCP(=O)(O)OC3)c(=O)[nH]1 (stereo not shown) [Compound 15]
- CC50 [19]: > 100 µM
- EC50 [25]: > 300 µM
- EC50 [26]: > 300 µM
- CC50 [16]: > 300 µM
- CC50 [17]: > 300 µM
- antiviral activity against all tested viruses [20]: devoid of potency; also recorded: devoid of antiviral activity
- EC50 ([23]; Human alphaherpesvirus 3, read-out: EC50 VZV/HFF): > 300 µM
- CC50 [21]: > 100 µM
- CC50 [2]: > 100 µM

Compound: Nc1nc(O)c2ncn(COC(CO)CO)c2n1 [Ganciclovir, ganciclovir]
- CC50 [16]: > 100 µM
- CC50 [27]: > 100 µM
- CC50 [21]: > 100 µM
